Key:
Format in all cases: functional
OVCAR-3 = assay: Antitumor activity against human OVCAR-3 cells assessed as cell growth at 10 uM after 48 hrs by sulforhodamine B assay; conditions: OVCAR-3, 48 h, read-out: Activity
SK-MEL-2 = assay: Antitumor activity against human SK-MEL-2 cells assessed as cell growth at 10 uM after 48 hrs by sulforhodamine B assay; conditions: SK-MEL-2, 48 h, read-out: Activity
OVCAR-5 = assay: Antitumor activity against human OVCAR5 cells assessed as cell growth at 10 uM after 48 hrs by sulforhodamine B assay; conditions: OVCAR-5, 48 h, read-out: Activity
SNB-19 = assay: Antitumor activity against human SNB19 cells assessed as cell growth at 10 uM after 48 hrs by sulforhodamine B assay; conditions: SNB-19, 48 h, read-out: Activity
M14 = assay: Antitumor activity against human M14 cells assessed as cell growth at 10 uM after 48 hrs by sulforhodamine B assay; conditions: M14, 48 h, read-out: Activity
SK-MEL-28 = assay: Antitumor activity against human SK-MEL-28 cells assessed as cell growth at 10 uM after 48 hrs by sulforhodamine B assay; conditions: SK-MEL-28, 48 h, read-out: Activity
CCRF-CEM = assay: Antitumor activity against human CCRF-CEM cells assessed as cell growth at 10 uM after 48 hrs by sulforhodamine B assay; conditions: read-out: Activity
BT-549 = assay: Antitumor activity against human BT549 cells assessed as cell growth at 10 uM after 48 hrs by sulforhodamine B assay; conditions: BT-549, 48 h, read-out: Activity
HL-60(TB) = assay: Antitumor activity against human HL-60(TB) cells assessed as cell growth at 10 uM after 48 hrs by sulforhodamine B assay; conditions: HL-60, 48 h, read-out: Activity
Rattus norvegicus = assay: Antiinflammatory activity in Wister albino rat assessed as inhibition of carrageenan-induced paw oedema at 50 mg/kg, ip administered 1 hr before carrageenan challenge measured after 1 hr of induction of inflammation relative to control; conditions: route intraperitoneal
NCI/ADR-RES = assay: Antitumor activity against human NCI/ADR-RES cells assessed as cell growth at 10 uM after 48 hrs by sulforhodamine B assay; conditions: read-out: Activity
EKVX = assay: Antitumor activity against human EKVX cells assessed as cell growth at 10 uM after 48 hrs by sulforhodamine B assay; conditions: read-out: Activity
MCF7 = assay: Antitumor activity against human MCF7 cells assessed as cell growth at 10 uM after 48 hrs by sulforhodamine B assay; conditions: MCF7, 48 h, read-out: Activity
Malme-3M = assay: Antitumor activity against human MALME-3M cells assessed as cell growth at 10 uM after 48 hrs by sulforhodamine B assay; conditions: read-out: Activity
UACC-257 = assay: Antitumor activity against human UACC257 cells assessed as cell growth at 10 uM after 48 hrs by sulforhodamine B assay; conditions: UACC-257, 48 h, read-out: Activity
MOLT-4 = assay: Antitumor activity against human MOLT4 cells assessed as cell growth at 10 uM after 48 hrs by sulforhodamine B assay; conditions: MOLT-4, 48 h, read-out: Activity
NCI-H522 = assay: Antitumor activity against human NCI-H522 cells assessed as cell growth at 10 uM after 48 hrs by sulforhodamine B assay; conditions: NCI-H522, 48 h, read-out: Activity
HOP-92 = assay: Antitumor activity against human HOP92 cells assessed as cell growth at 10 uM after 48 hrs by sulforhodamine B assay; conditions: HOP-92, 48 h, read-out: Activity
IGROV-1 = assay: Antitumor activity against human IGROV1 cells assessed as cell growth at 10 uM after 48 hrs by sulforhodamine B assay; conditions: IGROV-1, 48 h, read-out: Activity
LOX IMVI = assay: Antitumor activity against human LOXIMVI cells assessed as cell growth at 10 uM after 48 hrs by sulforhodamine B assay; conditions: read-out: Activity
KM12 = assay: Antitumor activity against human KM12 cells assessed as cell growth at 10 uM after 48 hrs by sulforhodamine B assay; conditions: KM12, 48 h, read-out: Activity
HT-29 = assay: Antitumor activity against human HT-29 cells assessed as cell growth at 10 uM after 48 hrs by sulforhodamine B assay; conditions: HT-29, 48 h, read-out: Activity
[1] = Antitumor activity against human […] cells assessed as cell growth at 10 uM after 48 hrs by sulforhodamine B assay; conditions: read-out: Activity
SF-539 = assay: Antitumor activity against human SF539 cells assessed as cell growth at 10 uM after 48 hrs by sulforhodamine B assay; conditions: SF-539, 48 h, read-out: Activity
MDA-MB-435 = assay: Antitumor activity against human MDA-MB-435 cells assessed as cell growth at 10 uM after 48 hrs by sulforhodamine B assay; conditions: MDA-MB-435, 48 h, read-out: Activity
786-0 = assay: Antitumor activity against human 786-0 cells assessed as cell growth at 10 uM after 48 hrs by sulforhodamine B assay; conditions: 786-0, 48 h, read-out: Activity
HCC 2998 = assay: Antitumor activity against human HCC2998 cells assessed as cell growth at 10 uM after 48 hrs by sulforhodamine B assay; conditions: HCC 2998, 48 h, read-out: Activity
SN12C = assay: Antitumor activity against human SN12C cells assessed as cell growth at 10 uM after 48 hrs by sulforhodamine B assay; conditions: read-out: Activity
SF-295 = assay: Antitumor activity against human SF295 cells assessed as cell growth at 10 uM after 48 hrs by sulforhodamine B assay; conditions: SF-295, 48 h, read-out: Activity

## CN1C/C(=C\c2ccc(Cl)cc2)C(=O)[C@]2(C1)[C@@H](c1ccc(Cl)cc1)CN(C)[C@@]21C(=O)Nc2ccccc21
OVCAR-3
  growth at 10 µM: 48.4%
SK-MEL-2
  growth at 10 µM: 76.2%
OVCAR-5
  growth at 10 µM: 94.2%
SNB-19
  growth at 10 µM: 76.5%
M14
  growth at 10 µM: 78.3%
SK-MEL-28
  growth at 10 µM: 101%
CCRF-CEM
  growth at 10 µM: 51.3%
BT-549
  growth at 10 µM: 63.9%
HL-60(TB)
  growth at 10 µM: 41.6%
Rattus norvegicus
  inhibition in vivo at 50 mg/kg: 83.1%
NCI/ADR-RES
  growth at 10 µM: 62.1%
EKVX
  growth at 10 µM: 37.2%
MCF7
  growth at 10 µM: 44.9%
Malme-3M
  growth at 10 µM: 91.9%
UACC-257
  growth at 10 µM: 79.3%
MOLT-4
  growth at 10 µM: 37.4%
NCI-H522
  growth at 10 µM: 59.8%
HOP-92
  growth at 10 µM: 56.2%
IGROV-1
  growth at 10 µM: 81.8%
LOX IMVI
  growth at 10 µM: 72.3%
KM12
  growth at 10 µM: 64.2%
HT-29
  growth at 10 µM: 59.5%
[1]
  growth at 10 µM: 38.5%
SF-539
  growth at 10 µM: 83.3%
MDA-MB-435
  growth at 10 µM: 61.1%
786-0
  growth at 10 µM: 71.8%
HCC 2998
  growth at 10 µM: 70.7%
SN12C
  growth at 10 µM: 64.1%
SF-295
  growth at 10 µM: 64.5%

## COc1ccc(/C=C2\CN(C)C[C@@]3(C2=O)[C@@H](c2ccccc2)CN(C)[C@@]32C(=O)Nc3ccccc32)cc1
OVCAR-3
  growth at 10 µM: 50.3%
SK-MEL-2
  growth at 10 µM: 60.7%
OVCAR-5
  growth at 10 µM: 92.5%
SNB-19
  growth at 10 µM: 61.6%
M14
  growth at 10 µM: 55.6%
SK-MEL-28
  growth at 10 µM: 76.3%
CCRF-CEM
  growth at 10 µM: 45.4%
BT-549
  growth at 10 µM: 56.3%
HL-60(TB)
  growth at 10 µM: 21.5%
Rattus norvegicus
  inhibition in vivo at 50 mg/kg: 80.1%
NCI/ADR-RES
  growth at 10 µM: 36.5%
EKVX
  growth at 10 µM: 64.2%
MCF7
  growth at 10 µM: 30.9%
Malme-3M
  growth at 10 µM: 58.7%
UACC-257
  growth at 10 µM: 70.3%
MOLT-4
  growth at 10 µM: 17.2%
NCI-H522
  growth at 10 µM: 50.2%
HOP-92
  growth at 10 µM: 46.7%
IGROV-1
  growth at 10 µM: 79.4%
LOX IMVI
  growth at 10 µM: 65.3%
KM12
  growth at 10 µM: 37.7%
HT-29
  growth at 10 µM: 58.1%
[1]
  growth at 10 µM: 20.7%
SF-539
  growth at 10 µM: 74%
MDA-MB-435
  growth at 10 µM: 60.7%
786-0
  growth at 10 µM: 57.2%
HCC 2998
  growth at 10 µM: 65.5%
SN12C
  growth at 10 µM: 58.4%

## CN1C/C(=C\c2ccc(-c3cccs3)cc2)C(=O)[C@]2(C1)[C@@H](c1ccc(-c3cccs3)cc1)CN(C)[C@@]21C(=O)N(C)c2ccccc21
OVCAR-3
  growth at 10 µM: 33.6%
SK-MEL-2
  growth at 10 µM: 68.6%
OVCAR-5
  growth at 10 µM: 103%
SNB-19
  growth at 10 µM: 65.3%
M14
  growth at 10 µM: 58.5%
SK-MEL-28
  growth at 10 µM: 80%
CCRF-CEM
  growth at 10 µM: 56.4%
BT-549
  growth at 10 µM: 79.7%
HL-60(TB)
  growth at 10 µM: 22.6%
Rattus norvegicus
  inhibition in vivo at 50 mg/kg: 84.7%
NCI/ADR-RES
  growth at 10 µM: 37.7%
EKVX
  growth at 10 µM: 47.1%
MCF7
  growth at 10 µM: 50.4%
Malme-3M
  growth at 10 µM: 76.4%
UACC-257
  growth at 10 µM: 64.6%
MOLT-4
  growth at 10 µM: 27.2%
NCI-H522
  growth at 10 µM: 49.4%
HOP-92
  growth at 10 µM: 41.1%
IGROV-1
  growth at 10 µM: 81.4%
LOX IMVI
  growth at 10 µM: 65%
KM12
  growth at 10 µM: 45.2%
HT-29
  growth at 10 µM: 56.1%
[1]
  growth at 10 µM: 10.6%
SF-539
  growth at 10 µM: 75.4%
MDA-MB-435
  growth at 10 µM: 40.6%
786-0
  growth at 10 µM: 65.8%
HCC 2998
  growth at 10 µM: 40.6%
SN12C
  growth at 10 µM: 64.3%

## CN1C/C(=C\c2ccc(Cl)cc2)C(=O)[C@]2(C1)[C@@H](c1ccc(Cl)cc1)CN(C)[C@@]21C(=O)N(C)c2ccccc21
OVCAR-3
  growth at 10 µM: 60.5%
SK-MEL-2
  growth at 10 µM: 71.9%
OVCAR-5
  growth at 10 µM: 87.7%
SNB-19
  growth at 10 µM: 77.3%
M14
  growth at 10 µM: 77.8%
SK-MEL-28
  growth at 10 µM: 104%
CCRF-CEM
  growth at 10 µM: 31.5%
BT-549
  growth at 10 µM: 80.3%
HL-60(TB)
  growth at 10 µM: 16.6%
Rattus norvegicus
  inhibition in vivo at 50 mg/kg: 82.3%
NCI/ADR-RES
  growth at 10 µM: 56.9%
EKVX
  growth at 10 µM: 42.1%
MCF7
  growth at 10 µM: 86.4%
Malme-3M
  growth at 10 µM: 73.5%
UACC-257
  growth at 10 µM: 72%
MOLT-4
  growth at 10 µM: 43.2%
NCI-H522
  growth at 10 µM: 56.4%
HOP-92
  growth at 10 µM: 61.6%
IGROV-1
  growth at 10 µM: 92.1%
LOX IMVI
  growth at 10 µM: 73.9%
KM12
  growth at 10 µM: 78.7%
HT-29
  growth at 10 µM: 68.4%
[1]
  growth at 10 µM: 38%
SF-539
  growth at 10 µM: 78.1%
MDA-MB-435
  growth at 10 µM: 87.8%
786-0
  growth at 10 µM: 73.9%
HCC 2998
  growth at 10 µM: 71.9%
SN12C
  growth at 10 µM: 62.9%
SF-295
  growth at 10 µM: 65.6%
